From PubChem BioAssay AID179 (DTP/NCI, 2004)
Calls of active or inactive are those of the source.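 Rule for the calls: active = compounds giving half or more protection of infected cells from virus-caused growth loss, again on retest; inactive = the rest.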

Test system: CEM cells HIV-1 protection, formazan growth assay
Assay: NCI AIDS Antiviral Assay
Conditions: for IC50: measured here: growth of uninfected CEM cells
In short: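 Protection of CEM cells against HIV-1 measured as cell growth via soluble formazan read-out, with five concentrations tested on both infected and uninfected cells; failure to protect may reflect toxicity.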

| SMILES | EC50 [µM] | IC50 [µM] | outcome |
| --- | --- | --- | --- |
| CC(C)n1c2c(c3ccccc3c1=O)C(=O)c1ccccc1-2 | > 64.6 | > 64.6 | – |
| CSC1=C(c2ccc(Cl)cc2)SC(N2CCCCC2)N1c1ccc([N+](=O)[O-])cc1 (stereo not drawn) | > 200 | 97.7 | – |
| CCOc1cnc([C@H]2CCC3[C@@H]4CC=C5C[C@@H](O)CC[C@]5(C)C4CC[C@@]32C)s1 (stereo partly drawn) | > 61.7 | > 61.7 | – |
| O=C(CCC/C(CC(=O)c1ccc(Cl)cc1)=N\NC(=O)c1cc2ccccc2cc1O)Nc1cccc([N+](=O)[O-])c1 | – | – | inactive |
| Cc1ccc(Nc2cccc3c2C(=O)c2cccc(Nc4ccc(C)cc4S(=O)(=O)O)c2C3=O)c(S(=O)(=O)O)c1 | – | – | active |
| COc1ccccc1NC(=O)CC(=O)N1N=C(N(c2ccccc2)c2ccccc2)CC1c1ccccc1 (stereo not drawn) | – | > 100 | inactive |
| CCCCCCCC(=O)OC(CBr)COC(=O)C(C)(C)C (stereo not drawn) | > 251 | 191 | – |
| COC(=O)C1=C(C(=O)OC)SC(=C2SC3=C(SC(=C4SCCS4)S3)S2)S1 | > 100 | > 100 | – |
| O=C(O)Cc1cc(=O)[nH]c2c1C(=O)CCC2 | – | – | inactive |
| COc1cc(O)c(C(=O)C2Cc3ccccc32)c(OC)c1 (stereo not drawn) | – | – | inactive |
| CC(C)CC1C(=O)OC(C)(C)OC1=O | > 200 | > 200 | – |
| c1ccc([S+]([CH2][Hg][CH2][S+](c2ccccc2)c2ccccc2)c2ccccc2)cc1 | > 30.2 | 10 | – |
| O=S(=O)(/N=C1/SC(=Nc2ccccc2)N(c2ccccc2)/C1=N/S(=O)(=O)c1ccccc1)c1ccccc1 | > 200 | 2.82 | – |
| Cc1cc(=S)oc2c3c(ccc12)OC(C)(C)[C@H](OC(=O)C12CCC(C)(C(=O)O1)C2(C)C)[C@@H]3OC(=O)C12CCC(C)(C(=O)O1)C2(C)C (stereo partly drawn) | 0.0575 | 20 | – |
| CN(c1ccc(C(=O)c2ccc(N(C)S(C)(=O)=O)cc2)cc1)S(C)(=O)=O | > 25.1 | > 25.1 | – |
| COc1cc2c(cc1OC)C(=O)c1nccc3ccc(OC)c(c13)O2 | > 53.7 | 43.7 | – |
| CN(/N=C\c1ccc2ccccc2c1)C1=NCCN1 | > 200 | 22.9 | – |
| COC1=C(NC(C)=O)C(=O)c2nc3n(c2C1=O)CCC3 | > 200 | 75.9 | – |
| CCOC(=O)C(=[N+]=[N-])C(=O)C[N+]12CCN(CC1)CC2 | > 200 | > 200 | – |
| Cc1cc(CC(O)c2ccc(Cl)c(Cl)c2)nc(=O)[nH]1 (stereo not drawn) | > 9.12 | > 9.12 | – |
| C=CCC1C(=O)CC2(C)C(CC=C)C(=O)CC12C (stereo not drawn) | – | – | inactive |
| COC1c2ccccc2C2C(Cl)(Cl)C23c2ccccc2C13 (stereo not drawn) | > 12 | > 12 | – |

| SMILES | EC50 [µM] | IC50 [µM] | outcome |
| --- | --- | --- | --- |
| CSC1=Nc2cc3c(cc2C(=O)N2CC(OC(C)=O)CC12)OCO3 (stereo not drawn) | > 200 | > 200 | – |
| Cc1ccc(SC(CCC(Sc2ccc(C)cc2)Sc2ccc(C)cc2)Sc2ccc(C)cc2)cc1 | – | – | inactive |
| Nc1cc(F)ccc1CC(=O)O | > 200 | > 200 | – |
| Cc1cccc(Nc2c3c(nc4ccccc24)CCCCC3)c1 | – | – | inactive |
| COc1ccc(/C(=N/O)c2ccccc2-c2nc3ccccc3c(=O)n2-c2ccc(S(=O)(=O)Nc3ccccn3)cc2)cc1C | > 100 | 63.1 | – |
| COc1ccc(C(=C[N+](=O)[O-])c2ccc(OC)cc2)cc1 | – | – | inactive |
| N#CC(C#N)=CNC(N)=S | > 200 | > 200 | – |
| C=C(CCCCOCOCCOC)[Si](C)(C)C | > 138 | > 138 | – |
| COc1cc2c(cc1OC)-c1c3cc(O)ccc3nn[n+]1CC2 | – | – | inactive |
| O=c1[nH]c(=O)n(COCCOCc2ccccc2)cc1Nc1ccccc1 | > 200 | 56.2 | – |
| NC(=S)N/N=C/c1cccc(CC(O)(C(F)(F)F)C(F)(F)F)n1 | > 200 | 5.89 | – |
| CC1(C(=O)O)CCC2(C)CCC3(C)C(=CC(=O)C4C5(C)CCC(OC6OC(C(=O)O)C(O)C(O)C6OC6OC(C(=O)O)C(O)C(O)C6O)C(C)(C)C5CCC43C)C2C1 (stereo not drawn) | > 302 | > 302 | – |
| Cc1ccc(N2C(=O)C=C(C3=C(O)C(=O)N(c4ccc(C)cc4)C3=O)C2=O)cc1 | 135 | > 200 | – |
| CC1(C)SC2C(NC(=O)C(N)c3ccccc3)C(=O)N2C1C(=O)O (stereo not drawn) | > 200 | > 200 | – |
| CC1CCCCN1CC(=O)c1ccc2c(c1)Sc1ccccc1O2 (stereo not drawn) | > 200 | 8.13 | – |
| Cc1ccc(OCC(=O)N2N=C(c3ccccc3)CC2(O)c2ccccc2)cc1 (stereo not drawn) | > 25.7 | > 25.7 | – |
| COC(=O)c1sc2nc(Nc3ccccc3)c(=Nc3ccccc3)sc2c1C | > 200 | > 200 | – |
| CCN(C(C)=O)c1cnc(/C=N/NC(N)=S)c2ccccc12 | > 200 | 2.57 | – |
| COc1ccc(C(CC(=O)c2ccc3c(c2)OCO3)C(=O)O)cc1OC (stereo not drawn) | – | – | inactive |
| O=C1c2c([N+](=O)[O-])cc(S(=O)(=O)O)c(O)c2C(=O)c2c([N+](=O)[O-])cc(S(=O)(=O)O)c(O)c21 | – | – | inactive |
| N#CCCN(CCCN(C(=O)Nc1ccccc1)c1ccccc1)C(=O)Nc1ccccc1 | > 200 | 95.5 | – |
| Cn1c2ccccc2[n+]2c(N)scc12 | > 200 | 39.8 | – |

| SMILES | EC50 [µM] | IC50 [µM] | outcome |
| --- | --- | --- | --- |
| NC1=NN(c2ccccc2)C(=O)C1C(=O)CCC(=O)Nc1cccc(C(F)(F)F)c1 (stereo not drawn) | > 427 | 407 | – |
| Cn1c(N=[N+]=[N-])cc(=O)n(C)c1=O | – | – | inactive |
| CN(CCO)CCN1c2ccccc2Sc2ccccc21 | – | – | inactive |
| N.N.N.N.N.N.O=N[O-].[Br-].[Co+3].[Co+3].[OH3+].[OH3+] | – | – | inactive |
| C1CN2CCOB(O1)OCC2 | > 200 | > 200 | – |
| O=c1[nH]nc(Cc2ccccc2)n1C1CCCC1 | > 200 | > 200 | – |
| O=C(NCCCl)N1CCC(CN=c2cc3n(-c4ccc(Cl)cc4)c4ccccc4nc-3cc2Nc2ccc(Cl)cc2)CC1 | > 100 | 17 | – |
| CCOC(=O)Cc1ccc2c(c1)sc1nc(-c3ccc(OC)cc3)cn12 | > 200 | 60.3 | – |
| CC(NNC(=O)c1ccncc1)c1ccccc1 (stereo not drawn) | > 200 | 75.9 | – |
| Nc1nc(NCCO)c(N=O)c(=O)[nH]1 | > 182 | > 182 | – |
| Cc1ccc(/C([O-])=C(\C(=S)Nc2cccc(Cl)c2)[n+]2ccccc2)cc1 | > 200 | 25.1 | – |
| COc1ccc(C2c3cc4c(cc3OC(NNC(N)=O)C2C)OCO4)cc1 (stereo not drawn) | > 200 | 3.89 | – |
| CC(=O)Nc1ccc2nc(-c3ccccn3)c(-c3ccccn3)nc2c1 | 27.5 | > 200 | – |
| COc1ccc2c(c1)CC1Cc3ccccc3CCN1C2 (stereo not drawn) | > 200 | 39.8 | – |
| CCCCc1ccc(Nc2nc(Cl)c3ccn(C4CC(Oc5ccc(C)cc5)C(COc5ccc(C)cc5)O4)c3n2)cc1 (stereo not drawn) | > 200 | > 200 | – |
| O=C(O)CCC(NC(=O)c1ccc(Oc2nc3ccccc3nc2-c2ccccc2)cc1)C(=O)O (stereo not drawn) | > 200 | > 200 | – |
| COC1=CC(=O)C(Br)=CC1=O | – | – | inactive |
| CN(C)CCN(C)P12(Oc3ccccc3O1)Oc1c(Cl)c(Cl)c(Cl)c(Cl)c1O2 | > 43.7 | 24.5 | – |
| ON(Cc1ccccc1)C(=S)c1ccccc1 | > 5.37 | 0.372 | – |
| O=C1CN=C(c2ccc[nH]2)c2cc(Cl)ccc2N1 | 2.45 | 3.98 | – |
